The target of one data set is cytochrome P450 2C9 (Homo sapiens (Human), UniProt P11712). Briefly: Cytochrome P450 2C9 inhibition. The class given is in vitro ADME. The conditions noted are these: human liver microsomes, Diclofenac hydroxylation; read-out: IC50 CYP2C9 inhibition. The method, then: Assay for Determination of Cytochrome P450 2C9 Inhibition
(§1) All assays are carried out on a robotic system in 96 well plates. The final incubation volume contains TRIS buffer (0.1 M), MgCl2 (5 mM), human liver microsomes (0.1 mg/ml), Diclofenac (10 μM) and the test compound at five different concentrations or no compound (high control) in duplicate (e.g. highest concentration 10-50 μM with subsequent serial 1:4 dilutions). Following a short preincubation period, reactions are started with the cofactor (NADPH, 1 mM) and stopped by cooling the incubation down to 8° C. and subsequently by addition of one volume of acetonitrile. An internal standard solution—usually the stable isotope of the formed metabolite—is added after quenching of incubations. Peak area analyte (=metabolite formed) and internal standard is determined by LC-MS/MS. The resulting peak area ratio analyte to internal standard in these incubations is compared to a control activity containing no test compound.
(§2) If the inhibition of the reaction is already >50% at the lowest concentration of the test compound, the IC50 is assigned “<lowest concentration tested” (usually <0.4 μM). If the inhibition of the reaction is still <50% at the highest concentration of the test compound, the IC50 is assigned “>highest concentration tested” (usually >50 μM).
A general note: Microsomes from liver hold many membrane-bound enzymes, among them those of drug oxidation.

Another data set addresses cytochrome P450 2C8 (Homo sapiens (Human), UniProt P10632). Briefly: Cytochrome P450 2C8 inhibition. The data set is classed as in vitro ADME. The settings on record: human liver microsomes, Amodiaquine deethylation; read-out: IC50 CYP2C8 inhibition. The method, then: Assay for Determination of Cytochrome P450 2C8 Inhibition
as §1, with “microsomes (0.05” for “microsomes (0.1”, “mg/ml), Amodiaquine (1” for “mg/ml), Diclofenac (10”
as §2

Another data set has as its target hERG potassium channel (Homo sapiens (Human), UniProt Q12809). Briefly: hERG inhibition patch clamp assay. The class given is cell-based. The settings on record: human, @ 10 μM. The text has this:
Calculations: Fold induction=(Enzyme mRNA Compound)/(Enzyme mRNA Solvent Control) Inducer Potency=(Fold Compound)/(Fold Rifampicin)*100 Assay for Determination of hERG Inhibition
The inhibition of the hERG (human ether-a-go-go-related gene) potassium channel can be determined as described in Rast, G., & Guth, B. D., Journal of Pharmacological and Toxicological Methods (2014), http://dx.doi.org/10.1016/j.vasen.2014.08.001.
In general terms: hERG is a cardiac potassium channel; its block is linked to QT prolongation.

One may read the IC50 as the point on the concentration scale where inhibition reaches its midpoint. As usually defined, the inhibition is the change of the read-out against control, counted positive when it falls.

Chain of cytochrome P450 2C9 (P11712 whole entry): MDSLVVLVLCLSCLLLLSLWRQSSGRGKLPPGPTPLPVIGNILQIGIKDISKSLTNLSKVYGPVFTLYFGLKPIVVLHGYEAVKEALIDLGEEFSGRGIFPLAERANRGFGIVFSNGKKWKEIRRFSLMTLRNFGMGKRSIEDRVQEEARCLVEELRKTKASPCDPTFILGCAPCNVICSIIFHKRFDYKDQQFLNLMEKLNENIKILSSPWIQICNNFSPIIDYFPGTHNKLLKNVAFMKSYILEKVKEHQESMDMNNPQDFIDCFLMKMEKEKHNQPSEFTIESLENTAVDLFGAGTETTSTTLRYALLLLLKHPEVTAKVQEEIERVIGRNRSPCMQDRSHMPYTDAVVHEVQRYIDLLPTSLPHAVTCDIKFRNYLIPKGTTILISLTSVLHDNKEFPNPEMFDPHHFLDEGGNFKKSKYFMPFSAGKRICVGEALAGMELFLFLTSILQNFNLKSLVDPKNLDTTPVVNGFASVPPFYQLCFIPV
Chain of cytochrome P450 2C8 (P10632 whole entry): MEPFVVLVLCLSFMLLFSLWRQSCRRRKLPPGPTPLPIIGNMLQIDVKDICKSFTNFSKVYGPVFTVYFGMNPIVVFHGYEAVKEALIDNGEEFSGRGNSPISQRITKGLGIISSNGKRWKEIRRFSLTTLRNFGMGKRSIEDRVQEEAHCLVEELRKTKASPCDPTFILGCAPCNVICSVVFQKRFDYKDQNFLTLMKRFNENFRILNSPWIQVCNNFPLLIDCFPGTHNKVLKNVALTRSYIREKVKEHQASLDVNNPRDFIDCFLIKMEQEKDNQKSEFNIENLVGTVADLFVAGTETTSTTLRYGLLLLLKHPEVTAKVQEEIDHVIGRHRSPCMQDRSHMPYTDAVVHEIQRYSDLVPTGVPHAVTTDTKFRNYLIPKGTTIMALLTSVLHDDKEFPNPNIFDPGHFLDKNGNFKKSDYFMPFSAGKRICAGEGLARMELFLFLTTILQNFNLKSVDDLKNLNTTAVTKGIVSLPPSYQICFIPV
Chain of hERG potassium channel (Q12809 whole entry): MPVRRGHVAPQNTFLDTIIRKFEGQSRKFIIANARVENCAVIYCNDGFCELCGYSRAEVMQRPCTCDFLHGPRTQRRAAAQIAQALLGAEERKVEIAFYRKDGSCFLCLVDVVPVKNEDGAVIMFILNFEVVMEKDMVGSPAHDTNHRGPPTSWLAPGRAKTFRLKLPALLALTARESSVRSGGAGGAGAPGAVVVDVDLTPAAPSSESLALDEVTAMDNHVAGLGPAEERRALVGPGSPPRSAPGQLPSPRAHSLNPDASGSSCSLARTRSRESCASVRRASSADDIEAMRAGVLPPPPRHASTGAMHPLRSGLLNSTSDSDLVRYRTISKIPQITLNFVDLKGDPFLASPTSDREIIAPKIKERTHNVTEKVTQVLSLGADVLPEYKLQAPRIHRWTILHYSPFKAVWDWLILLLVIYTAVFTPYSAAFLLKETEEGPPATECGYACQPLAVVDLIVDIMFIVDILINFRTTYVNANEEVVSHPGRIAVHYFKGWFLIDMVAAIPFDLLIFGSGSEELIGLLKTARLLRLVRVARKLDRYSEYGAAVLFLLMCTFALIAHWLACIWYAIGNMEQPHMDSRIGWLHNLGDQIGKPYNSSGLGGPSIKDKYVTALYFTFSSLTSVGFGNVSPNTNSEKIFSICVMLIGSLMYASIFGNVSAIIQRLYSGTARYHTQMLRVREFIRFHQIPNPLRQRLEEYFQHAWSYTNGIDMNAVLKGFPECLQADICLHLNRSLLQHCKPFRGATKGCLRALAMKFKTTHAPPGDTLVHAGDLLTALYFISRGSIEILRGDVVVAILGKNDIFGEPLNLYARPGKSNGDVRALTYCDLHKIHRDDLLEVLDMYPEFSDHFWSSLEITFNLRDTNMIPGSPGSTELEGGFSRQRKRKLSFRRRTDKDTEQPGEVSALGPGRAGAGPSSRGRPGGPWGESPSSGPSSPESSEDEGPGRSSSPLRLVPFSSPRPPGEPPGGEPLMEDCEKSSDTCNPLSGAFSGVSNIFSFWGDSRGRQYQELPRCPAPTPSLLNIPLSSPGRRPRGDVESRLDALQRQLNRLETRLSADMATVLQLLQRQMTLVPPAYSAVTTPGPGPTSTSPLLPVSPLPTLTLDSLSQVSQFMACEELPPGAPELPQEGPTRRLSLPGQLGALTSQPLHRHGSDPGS

As for `CC(=O)C1=C(C)N(c2cccc(C(F)(F)F)c2)C(=O)N(C)[C@@H]1c1ccc(C#N)cc1-c1ccc(=O)n(C)c1` [Example 16, 4-[(R)-5-Acetyl-3,6-dimethyl-2-oxo-1-(3-trifluoromethyl-phenyl)-1,2,3,4-tetrahydro-pyrimidin-4-yl]-3-(1-methyl-6-oxo-1,6-dihydro-pyridin-3-yl)-benzonitrile], the IC50 on cytochrome P450 2C9 and at cytochrome P450 2C8 was above 50 µM each time. Moreover, 10 µM produced 8% inhibition against hERG potassium channel.

For the compound `CNC(=O)c1cc(C#N)ccc1[C@@H]1C(C(C)=O)=C(C)N(c2cccc(C(F)(F)F)c2)C(=O)N1C` [Example 13.1], the IC50 at cytochrome P450 2C9 and at cytochrome P450 2C8 was above 50 µM in each case.

Values taken from patent publication US9290457B2, “Substituted dihydropyrimidinones and their use as inhibitors of neutrophil elastase activity” (Boehringer Ingelheim International GmbH, priority 2014, dated 2016).
